Measured values from patent US8129371B2, “Thienopyrimidine and pyrazolopyrimidine compounds and their use as mTOR kinase and PI3 kinase inhibitors” (Wyeth LLC, priority 2007, dated 2012).
Read-outs that look alike come from different tables or passages of the source.

Assays:
PI3K [1] = target: T1, PI3K (Homo sapiens, UniProt P42336); experiment: Fluorescence polarization assay for PI3K; type: biochemical; conditions: read-out: PI3 Kinase α IC50
T1 construct: PI3 Kinase α IC50; other: PI3 Kinase α; other: PI3 Kinase α isoform, fluorescence polarization
Procedure, shortened: (§1)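 Fluorescence-polarization competition readout: after 30–60 min of PIP2/ATP turnover in 1% DMSO, a stop mix with GST-GRP (70 nM) and red probe (10 nM) was added.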

PI3K [2] = target: T2, PI3K (Homo sapiens, UniProt P48736); experiment: Fluorescence polarization assay for PI3K; type: biochemical; conditions: read-out: PI3 Kinase γ IC50
T2 construct: PI3 Kinase γ IC50; other: PI3 Kinase γ; other: PI3 Kinase γ isoform, fluorescence polarization
Procedure, shortened: as §1

prostate line LNCap = experiment: In vitro cell culture growth assay (MTS), LNCap; type: cell-based; conditions: Homo sapiens, LNCaP, 72 h, LNCap cells, three days after drug treatment
Procedure, shortened: (§2)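 Following a one-day attachment period, cells received inhibitors for 3 days. MTS metabolism by viable cells was quantified at 490 nm absorbance and converted to percent of same-plate vehicle control growth.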

Human mTOR (FLAG-TOR) = target: T3, Human mTOR (FLAG-TOR) (Homo sapiens, UniProt P42345); experiment: Human mTOR kinase assay with purified enzyme, DELFIA format; type: biochemical
T3 construct: FLAG
Procedure, shortened: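 DELFIA readout: Eu-anti-P(T389)-S6K antibody (40 ng/mL, 1 h) on captured His6-S6K from the stopped reaction. Kinase step used purified FLAG-tagged human mTOR with test compound in HEPES (pH 7.4)/MnCl2/DTT buffer, 2 h at room temperature (linear 1–6 h), terminated by EDTA/EGTA.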

breast line MDA468 = experiment: In vitro cell culture growth assay (MTS), MDA468; type: cell-based; conditions: Homo sapiens, 72 h, MDA468 cells, three days after drug treatment
Procedure, shortened: as §2

[3] = PI3 Kinase α isoform, fluorescence polarization
[4] = PI3 Kinase γ isoform, fluorescence polarization
[5] = purified human mTOR enzyme, DELFIA format

T2 sequence (P48736 whole entry, canonical isoform): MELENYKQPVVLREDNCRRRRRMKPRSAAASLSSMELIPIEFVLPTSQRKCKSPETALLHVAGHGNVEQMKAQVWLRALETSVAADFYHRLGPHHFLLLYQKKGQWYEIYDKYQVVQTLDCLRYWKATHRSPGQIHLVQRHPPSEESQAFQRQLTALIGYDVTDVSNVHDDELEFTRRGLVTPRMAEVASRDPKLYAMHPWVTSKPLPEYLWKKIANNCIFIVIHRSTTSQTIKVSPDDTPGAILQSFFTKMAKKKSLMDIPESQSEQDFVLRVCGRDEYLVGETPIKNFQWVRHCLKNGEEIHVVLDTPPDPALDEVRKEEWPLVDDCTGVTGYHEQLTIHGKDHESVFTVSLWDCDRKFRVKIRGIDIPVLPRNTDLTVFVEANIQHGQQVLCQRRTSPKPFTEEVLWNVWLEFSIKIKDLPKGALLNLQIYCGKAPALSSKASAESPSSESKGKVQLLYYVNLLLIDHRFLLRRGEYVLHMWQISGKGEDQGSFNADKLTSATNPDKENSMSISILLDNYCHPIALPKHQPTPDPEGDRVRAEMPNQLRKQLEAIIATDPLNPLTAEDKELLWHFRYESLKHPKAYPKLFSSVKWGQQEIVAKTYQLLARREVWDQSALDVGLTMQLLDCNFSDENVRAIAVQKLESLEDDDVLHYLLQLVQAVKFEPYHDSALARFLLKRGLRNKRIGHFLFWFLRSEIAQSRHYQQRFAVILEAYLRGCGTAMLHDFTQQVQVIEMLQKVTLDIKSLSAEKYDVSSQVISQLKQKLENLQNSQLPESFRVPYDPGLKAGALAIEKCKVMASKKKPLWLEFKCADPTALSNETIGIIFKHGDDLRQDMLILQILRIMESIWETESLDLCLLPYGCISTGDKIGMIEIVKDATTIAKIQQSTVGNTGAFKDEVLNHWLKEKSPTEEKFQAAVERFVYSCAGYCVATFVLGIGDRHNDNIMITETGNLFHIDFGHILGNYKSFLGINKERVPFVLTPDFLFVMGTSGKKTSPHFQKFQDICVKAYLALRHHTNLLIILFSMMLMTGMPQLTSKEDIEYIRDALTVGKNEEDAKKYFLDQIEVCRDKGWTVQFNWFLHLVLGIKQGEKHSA
T1 sequence (P42336 whole entry, canonical isoform): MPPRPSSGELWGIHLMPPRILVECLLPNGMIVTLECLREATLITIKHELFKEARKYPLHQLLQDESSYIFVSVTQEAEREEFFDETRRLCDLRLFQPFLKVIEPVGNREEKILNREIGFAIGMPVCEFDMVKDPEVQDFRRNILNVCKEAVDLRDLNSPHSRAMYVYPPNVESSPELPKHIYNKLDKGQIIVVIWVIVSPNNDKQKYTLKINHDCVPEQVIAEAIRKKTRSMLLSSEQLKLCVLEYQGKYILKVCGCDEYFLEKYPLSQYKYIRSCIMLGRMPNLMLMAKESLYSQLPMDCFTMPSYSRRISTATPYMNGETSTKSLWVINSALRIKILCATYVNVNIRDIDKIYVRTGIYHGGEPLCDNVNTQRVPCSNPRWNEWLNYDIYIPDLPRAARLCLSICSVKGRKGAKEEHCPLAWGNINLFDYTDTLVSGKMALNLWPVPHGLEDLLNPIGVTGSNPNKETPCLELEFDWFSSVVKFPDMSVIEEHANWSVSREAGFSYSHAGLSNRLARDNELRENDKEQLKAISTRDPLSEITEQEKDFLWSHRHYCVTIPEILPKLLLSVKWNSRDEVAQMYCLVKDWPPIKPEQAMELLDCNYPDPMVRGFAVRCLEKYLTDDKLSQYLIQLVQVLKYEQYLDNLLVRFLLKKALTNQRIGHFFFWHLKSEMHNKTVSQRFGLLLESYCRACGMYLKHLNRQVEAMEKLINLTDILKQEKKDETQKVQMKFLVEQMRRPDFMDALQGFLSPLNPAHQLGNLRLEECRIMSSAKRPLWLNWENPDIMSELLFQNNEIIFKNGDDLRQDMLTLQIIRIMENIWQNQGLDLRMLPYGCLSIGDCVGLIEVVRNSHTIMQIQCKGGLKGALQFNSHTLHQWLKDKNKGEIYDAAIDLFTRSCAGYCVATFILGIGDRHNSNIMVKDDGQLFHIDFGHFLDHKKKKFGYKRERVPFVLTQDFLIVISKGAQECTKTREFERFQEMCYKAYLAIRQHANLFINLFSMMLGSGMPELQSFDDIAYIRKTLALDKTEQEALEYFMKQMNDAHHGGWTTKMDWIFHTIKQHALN

SMILES	IC50 (PI3K [1]; PI3 Kinase α) [nM]	IC50 (PI3K [2]; PI3 Kinase γ) [nM]	IC50 (prostate line LNCap) [nM]	IC50 (Human mTOR (FLAG-TOR)) [nM]	IC50 (PI3K [1]; [3]) [nM]	IC50 (PI3K [2]; [4]) [nM]	IC50 (Human mTOR (FLAG-TOR); [5]) [nM]	IC50 (breast line MDA468) [nM]
COC(=O)Nc1ccc(-c2nc(N3CC4CCC(C3)O4)c3cnn(C4CCN(C(=O)OC(C)C)CC4)c3n2)cc1 [Example 74, isopropyl 4-[6-{4-[(methoxycarbonyl)amino]phenyl}-4-(8-oxa-3-azabicyclo[3.2.1]oct-3-yl)-1H-pyrazolo[3,4-d]pyrimidin-1-yl]piperidine-1-carboxylate]	4480	9500	200	4.5	–	–	–	6000
CCn1ncc2c(N3CC4CCC(C3)O4)nc(-c3ccc(NC(=O)NCCCNC)cc3)nc21 [Example 49, 1-{4-[1-ethyl-4-(8-oxa-3-azabicyclo[3.2.1]oct-3-yl)-1H-pyrazolo[3,4-d]pyrimidin-6-yl]phenyl}-3-[3-(methylamino)propyl]urea]	968	> 10000	1800	14	–	–	–	3000
CN1CCN(C2CCC(n3ncc4c(N5CC6CCC(C5)O6)nc(-c5ccc(NC(=O)OCCO)cc5)nc43)CC2)CC1 (stereo not drawn) [Example 369, 2-hydroxyethyl (4-{1-[4-(4-methylpiperazin-1-yl)cyclohexyl]-4-(8-oxa-3-azabicyclo[3.2.1]oct-3-yl)-1H-pyrazolo[3,4-d]pyrimidin-6-yl}phenyl)carbamate]	–	–	220	–	3140	11900	1.6	750
COC(=O)Nc1ccc(-c2nc(N3CC4CCC(C3)O4)c3cnn(CCO)c3n2)cc1 [Example 192, methyl {4-[1-(2-hydroxyethyl)-4-(8-oxa-3-azabicyclo[3.2.1]oct-3-yl)-1H-pyrazolo[3,4-d]pyrimidin-6-yl]phenyl}carbamate]	2100	> 10000	1020	26	–	–	–	5000
CCn1nc(N2CCN(C)CC2)c2c(N3CC4CCC(C3)O4)nc(-c3ccc(NC(=O)NC)cc3)nc21 [Example 348, 1-{4-[1-ethyl-3-(4-methylpiperazin-1-yl)-4-(8-oxa-3-azabicyclo[3.2.1]oct-3-yl)-1H-pyrazolo[3,4-d]pyrimidin-6-yl]phenyl}-3-methylurea]	–	–	280	–	1010	8590	7.5	1000
COC(=O)N1CCC(n2ncc3c(N4C5CCC4COC5)nc(-c4ccc(NC(=O)Nc5ccc(CN(C)C)cc5)cc4)nc32)CC1 [Example 366]	–	–	10	–	2070	1500	0.795	20
O=C(Nc1ccc(-c2nc(N3CC4C[C@@H](O)C(C3)O4)c3cnn(CC(F)(F)F)c3n2)cc1)OCCO (stereo partly drawn) [Example 379, 2-hydroxyethyl (4-{4-[(6R)-6-hydroxy-8-oxa-3-azabicyclo[3.2.1]oct-3-yl]-1-(2,2,2-trifluoroethyl)-1H-pyrazolo[3,4-d]pyrimidin-6-yl}phenyl)carbamate]	–	–	6800	–	> 10000	> 10000	245	5000
O=C(NCCO)Nc1ccc(-c2nc(N3CC4CCC(C3)O4)c3cnn(CCO)c3n2)cc1 [Example 196, 1-(2-hydroxyethyl)-3-{4-[1-(2-hydroxyethyl)-4-(8-oxa-3-azabicyclo[3.2.1]oct-3-yl)-1H-pyrazolo[3,4-d]pyrimidin-6-yl]phenyl}urea]	607	7330	10000	2.2	–	–	–	13000
CCn1ncc2c(N3CC4CCC(C3)O4)nc(-c3ccc(NC(=O)NCCOCCN)cc3)nc21 [Example 225, 1-[2-(2-aminoethoxy)ethyl]-3-{4-[1-ethyl-4-(8-oxa-3-azabicyclo[3.2.1]oct-3-yl)-1H-pyrazolo[3,4-d]pyrimidin-6-yl]phenyl}urea]	1390	> 10000	2400	26.5	–	–	–	4000
CCn1ncc2c(N3CC4CCC(C3)O4)nc(-c3ccc(NC(=O)NCCO)cc3)nc21 [Example 44, 1-{4-[1-ethyl-4-(8-oxa-3-azabicyclo[3.2.1]oct-3-yl)-1H-pyrazolo[3,4-d]pyrimidin-6-yl]phenyl}-3-(2-hydroxyethyl)urea]	416	12000	220	0.34	–	–	–	370
COC(=O)N1CCC(n2ncc3c(N4CC5CCC(C4)O5)nc(-c4ccc(NC(=O)OCCN)cc4)nc32)CC1 [Example 114, methyl 4-[6-(4-{[(2-aminoethoxy)carbonyl]amino}phenyl)-4-(8-oxa-3-azabicyclo[3.2.1]oct-3-yl)-1H-pyrazolo[3,4-d]pyrimidin-1-yl]piperidine-1-carboxylate]	1430	7480	4000	36.5	–	–	–	6000
CNC(=O)Nc1ccc(-c2nc(N3C4CCC3COC4)c3cnn(C4CCN(C(=O)OC)CC4)c3n2)cc1 [Example 356, methyl 4-[6-{4-[(methylcarbamoyl)amino]phenyl}-4-(3-oxa-8-azabicyclo[3.2.1]oct-8-yl)-1H-pyrazolo[3,4-d]pyrimidin-1-yl]piperidine-1-carboxylate]	–	–	30	–	4270	6740	0.22	50
O=C(Nc1ccncc1)Nc1ccc(-c2nc(N3CC4CNCC(C3)O4)c3cnn(CC(F)(F)F)c3n2)cc1 [Example 337, 1-{4-[4-(9-oxa-3,7-diazabicyclo[3.3.1]non-3-yl)-1-(2,2,2-trifluoroethyl)-1H-pyrazolo[3,4-d]pyrimidin-6-yl]phenyl}-3-pyridin-4-ylurea]	–	–	2200	–	1790	7930	31.5	1900

More lines, main results first:

IC50 (PI3K [1]; PI3 Kinase α) [nM]	IC50 (PI3K [2]; PI3 Kinase γ) [nM]	IC50 (prostate line LNCap) [nM]	IC50 (Human mTOR (FLAG-TOR)) [nM]	IC50 (PI3K [1]; [3]) [nM]	IC50 (PI3K [2]; [4]) [nM]	IC50 (Human mTOR (FLAG-TOR); [5]) [nM]	SMILES	IC50 (breast line MDA468) [nM]
149	794	20	0.63	–	–	–	CC(C)(C)n1ncc2c(N3CC4CCC(C3)O4)nc(-c3ccc(NC(=O)Nc4cccnc4)cc3)nc21 [Example 100]	130
130	577	68	1.8	–	–	–	CC(C)(C)n1ncc2c(N3CC4CCC(C3)O4)nc(-c3ccc(NC(=O)Nc4ccccc4)cc3)nc21 [Example 99]	280
> 10000	> 10000	190	4	–	–	–	O=C(Nc1ccc(-c2nc(N3CC4CCC(C3)O4)c3cnn(C4CCC5(CC4)OCCO5)c3n2)cc1)OCCCO [Example 122, 3-hydroxypropyl {4-[1-(1,4-dioxaspiro[4.5]dec-8-yl)-4-(8-oxa-3-azabicyclo[3.2.1]oct-3-yl)-1H-pyrazolo[3,4-d]pyrimidin-6-yl]phenyl}carbamate]	1800
–	–	< 1	–	221	2430	0.495	COC1CCC(n2ncc3c(N4CC5CCC(C4)O5)nc(-c4ccc(NC(=O)Nc5ccc(OCCN(C)C)cc5)cc4)nc32)CC1 (stereo not drawn) [Example 310, 1-{4-[2-(dimethylamino)ethoxy]phenyl}-3-{4-[1-(4-methoxycyclohexyl)-4-(8-oxa-3-azabicyclo[3.2.1]oct-3-yl)-1H-pyrazolo[3,4-d]pyrimidin-6-yl]phenyl}urea]	1
1820	> 10000	90	0.765	–	–	–	O=C(Nc1ccc(-c2nc(N3CC4CCC(C3)O4)c3cnn(CCF)c3n2)cc1)NC1CC1 [Example 248, 1-cyclopropyl-3-{4-[1-(2-fluoroethyl)-4-(8-oxa-3-azabicyclo[3.2.1]oct-3-yl)-1H-pyrazolo[3,4-d]pyrimidin-6-yl]phenyl}urea]	500
–	–	85	–	423	> 10000	0.94	CNC(=O)Nc1ccc(-c2nc(N3CC4CCC(C3)O4)c3sccc3n2)cc1 [Example 406, 1-methyl-3-{4-[4-(8-oxa-3-azabicyclo[3.2.1]oct-3-yl)thieno[3,2-d]pyrimidin-2-yl]phenyl}urea]	400
234	1220	< 1	0.425	–	–	–	COC(=O)N1CCC(n2ncc3c(N4CC5CCC(C4)O5)nc(-c4ccc(NC(=O)Nc5ccc(N6CCN(C)CC6)nc5)cc4)nc32)CC1 [Example 167, methyl 4-{6-[4-({[6-(4-methylpiperazin-1-yl)pyridin-3-yl]carbamoyl}amino)phenyl]-4-(8-oxa-3-azabicyclo[3.2.1]oct-3-yl)-1H-pyrazolo[3,4-d]pyrimidin-1-yl}piperidine-1-carboxylate]	4
49	781	< 1	0.064	–	–	–	CC(C)n1ncc2c(N3CC4CCC(C3)O4)nc(-c3ccc(NC(=O)Nc4cccnc4)cc3)nc21 [Example 148, 1-{4-[1-isopropyl-4-(8-oxa-3-azabicyclo[3.2.1]oct-3-yl)-1H-pyrazolo[3,4-d]pyrimidin-6-yl]phenyl}-3-pyridin-3-ylurea]	9
